Experimental data from ChEMBL document CHEMBL1130752, “Quaternary substituted PDE IV inhibitors II: the synthesis and in vitro evaluation of a novel series of gamma-lactams” (Bioorg Med Chem Lett, 1998).

What was measured:
Phosphodiesterase 4 [1] = target: T1, Phosphodiesterase 4 (Homo sapiens, UniProt P27815+Q08499+Q07343+Q08493); test: Affinity for phosphodiesterase (PDE IV) in guinea pig brain membrane using [3H]rolipram displacement.; assay type: cell membranes, Cavia porcellus; settings: target entry is the homologue from another species
Phosphodiesterase 4 [2] = target: T1, Phosphodiesterase 4; test: In vitro inhibition of phosphodiesterase (PDE IV) from guinea pig macrophages.; assay type: protein assay, Cavia porcellus; settings: target entry is the homologue from another species

COc1ccc(C2(Cc3ccncc3)CCNC2=O)cc1OC1CCCC1 (stereo unspecified)
Ki (Phosphodiesterase 4 [1]): 210 nM | IC50 (Phosphodiesterase 4 [2]): 800 nM

COc1ccc(C2(Cc3ccccc3)CCN(C(=O)OC(C)(C)C)C2=O)cc1OC1CCCC1 (stereo unspecified)
Ki (Phosphodiesterase 4 [1]): 2996 nM | IC50 (Phosphodiesterase 4 [2]): 220 nM

COc1ccc(C2(Cc3ccccc3)CCNC2=O)cc1OC1CCCC1 (stereo unspecified)
Ki (Phosphodiesterase 4 [1]): 787 nM | IC50 (Phosphodiesterase 4 [2]): 1000 nM

COc1ccc(C2(Cc3ccncc3)CCN(Cc3cccc4ccccc34)C2=O)cc1OC1CCCC1 (stereo unspecified)
Ki (Phosphodiesterase 4 [1]): 822 nM | IC50 (Phosphodiesterase 4 [2]): 293 nM

CCOC(=O)N1CCC(Cc2ccncc2)(c2ccc(OC)c(OC3CCCC3)c2)C1=O (stereo unspecified)
Ki (Phosphodiesterase 4 [1]): 139 nM | IC50 (Phosphodiesterase 4 [2]): 137 nM

COc1ccc(C2(Cc3ccncc3)CCN(Cc3ccncc3)C2=O)cc1OC1CCCC1 (stereo unspecified)
Ki (Phosphodiesterase 4 [1]): 443 nM | IC50 (Phosphodiesterase 4 [2]): 401 nM

COc1ccc(C2(Cc3ccncc3)CCN(CCC(C)C)C2=O)cc1OC1CCCC1 (stereo unspecified)
Ki (Phosphodiesterase 4 [1]): 80 nM | IC50 (Phosphodiesterase 4 [2]): 81 nM

COc1ccc(C2(Cc3cc[n+]([O-])cc3)CCNC2=O)cc1OC1CCCC1 (stereo unspecified)
Ki (Phosphodiesterase 4 [1]): 2247 nM | IC50 (Phosphodiesterase 4 [2]): 1600 nM

COc1ccc(C2(Cc3ccncc3)CCN(C(=O)OC(C)(C)C)C2)cc1OC1CCCC1 (stereo unspecified)
Ki (Phosphodiesterase 4 [1]): 470 nM | IC50 (Phosphodiesterase 4 [2]): 807 nM

COc1ccc(C2(Cc3ccncc3)CCN(C(=O)OC(C)(C)C)C2=O)cc1OC1CCCC1 (stereo unspecified)
Ki (Phosphodiesterase 4 [1]): 7.5 nM | IC50 (Phosphodiesterase 4 [2]): 6.3 nM

COc1ccc(C2CCN(C(=O)OC(C)(C)C)C2=O)cc1OC1CCCC1 (stereo unspecified)
Ki (Phosphodiesterase 4 [1]): 337 nM | IC50 (Phosphodiesterase 4 [2]): 700 nM

COc1ccc(C2(Cc3ccncc3)CCN(S(=O)(=O)c3ccc(C)cc3)C2=O)cc1OC1CCCC1 (stereo unspecified)
Ki (Phosphodiesterase 4 [1]): 217 nM | IC50 (Phosphodiesterase 4 [2]): 61 nM

CCCCN1CCC(Cc2ccncc2)(c2ccc(OC)c(OC3CCCC3)c2)C1=O (stereo unspecified)
Ki (Phosphodiesterase 4 [1]): 137 nM | IC50 (Phosphodiesterase 4 [2]): 123 nM

COc1ccc(C2(Cc3ccncc3)CCN(Cc3ccc4ccccc4c3)C2=O)cc1OC1CCCC1 (stereo unspecified)
Ki (Phosphodiesterase 4 [1]): 4.3 nM | IC50 (Phosphodiesterase 4 [2]): 17 nM

COc1ccc(C2(Cc3ccncc3)CCN(Cc3ccccc3)C2=O)cc1OC1CCCC1 (stereo unspecified)
Ki (Phosphodiesterase 4 [1]): 51 nM | IC50 (Phosphodiesterase 4 [2]): 56 nM

COc1ccc(C2(Cc3ccncc3)CCN(CC3CCCCC3)C2=O)cc1OC1CCCC1 (stereo unspecified)
Ki (Phosphodiesterase 4 [1]): 43 nM | IC50 (Phosphodiesterase 4 [2]): 48 nM

COc1ccc(C2(Cc3cc[n+]([O-])cc3)CCN(C(=O)OC(C)(C)C)C2=O)cc1OC1CCCC1 (stereo unspecified)
Ki (Phosphodiesterase 4 [1]): 217 nM | IC50 (Phosphodiesterase 4 [2]): 59 nM

COc1ccc(C2(Cc3ccncc3)CCN(C(=O)N(C)C)C2=O)cc1OC1CCCC1 (stereo unspecified)
Ki (Phosphodiesterase 4 [1]): 274 nM | IC50 (Phosphodiesterase 4 [2]): 319 nM

COc1ccc(C2CCNC2=O)cc1OC1CCCC1 (stereo unspecified)
Ki (Phosphodiesterase 4 [1]): > 3745 nM | IC50 (Phosphodiesterase 4 [2]): 5000 nM

COc1ccc(C2(CC#N)CCN(C(=O)OC(C)(C)C)C2=O)cc1OC1CCCC1 (stereo unspecified)
Ki (Phosphodiesterase 4 [1]): 476 nM | IC50 (Phosphodiesterase 4 [2]): 82 nM

COc1ccc(C2(Cc3ccncc3)CCN(C(C)=O)C2=O)cc1OC1CCCC1 (stereo unspecified)
Ki (Phosphodiesterase 4 [1]): 367 nM | IC50 (Phosphodiesterase 4 [2]): 461 nM

COc1ccc(C2(Cc3ccncc3)CCN(C(=O)OC(C)C)C2=O)cc1OC1CCCC1 (stereo unspecified)
Ki (Phosphodiesterase 4 [1]): 113 nM | IC50 (Phosphodiesterase 4 [2]): 44 nM

COC(=O)N1CCC(Cc2ccncc2)(c2ccc(OC)c(OC3CCCC3)c2)C1=O (stereo unspecified)
Ki (Phosphodiesterase 4 [1]): 822 nM | IC50 (Phosphodiesterase 4 [2]): 293 nM
